In PMC5607274, “An iterative compound screening contest method for identifying target protein inhibitors using the tyrosine-protein kinase Yes” (Scientific Reports, 2017):

Molecular target: T1, human recombinant Yes [a.a. 2–543 (end)] (Homo sapiens, UniProt P07947)
T1 construct: human recombinant Yes [a.a; 2–543 (end)]; purchased BPS Bioscience 40488
Assay: ADP-Glo kinase assay, inhibition rates of Yes phosphorylation activity (first and second screening)
Format: biochemical
Conditions: 10 μmol L−1 compound; for First screening IR (inhibition rate): mean of n = 4 wells
Outline: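 ADP-Glo luminescence measured inhibition of human recombinant Yes (a.a. 2–543) phosphorylation activity. In the first screen, each compound ran in 4 wells and inhibition rates were averaged. The second screen retested hits as compounds dissolved from fresh powder.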

T1 sequence (P07947 2-543): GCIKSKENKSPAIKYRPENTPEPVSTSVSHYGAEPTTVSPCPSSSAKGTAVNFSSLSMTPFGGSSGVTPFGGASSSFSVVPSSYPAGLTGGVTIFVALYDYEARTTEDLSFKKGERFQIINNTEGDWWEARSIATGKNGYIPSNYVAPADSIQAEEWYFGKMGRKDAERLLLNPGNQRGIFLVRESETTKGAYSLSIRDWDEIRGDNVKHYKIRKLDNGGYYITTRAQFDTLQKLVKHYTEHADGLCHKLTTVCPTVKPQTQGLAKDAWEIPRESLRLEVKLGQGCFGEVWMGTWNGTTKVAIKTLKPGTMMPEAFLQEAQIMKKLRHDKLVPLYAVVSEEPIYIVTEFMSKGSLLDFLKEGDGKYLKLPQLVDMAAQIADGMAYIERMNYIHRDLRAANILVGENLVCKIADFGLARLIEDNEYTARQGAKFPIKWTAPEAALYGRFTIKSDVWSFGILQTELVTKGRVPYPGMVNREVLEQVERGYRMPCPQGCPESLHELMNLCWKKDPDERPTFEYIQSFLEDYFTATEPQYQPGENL

First screening IR (inhibition rate) [%]	Second screening IR (inhibition rate) (second screening, dissolved from fresh powder, n = 4) [%]	SMILES
2	–	Cc1oc(-c2ccsc2)nc1CC(=O)Nc1cc(C(N)=O)n(C)c1 [Compound Z1039455578]
-8	–	Cn1ccc2c(NC(=O)NCc3ccnc(N4CCCC4)c3)cccc21 [Compound Z1040576806]
20	–	Cc1nc2n(n1)CC(NCc1cn[nH]c1-c1ccc(C)o1)CC2 (stereo not shown) [Compound Z1051950052]
-5	–	CN(C)C(=O)Cn1cc(NC(=O)c2ccc3cc[nH]c3c2)cn1 [Compound Z1067269008]
25	–	Cn1cc(NC(=O)C2(c3cccc(C(F)(F)F)c3)CC2)cn1 [Compound Z1068296272]
56	–	c1cc(-c2nc3c(c(N4CCCC(N5CCCC5)C4)n2)CCC3)ccn1 (stereo not shown) [Compound Z1070397714]
4	–	Cc1cccc(-c2nc(C(C)C)no2)c1NC(=O)CCc1ccccc1 [Compound Z1082320758]
8	–	CCN(CC)S(=O)(=O)c1ccc(N2CCC(NC(C)C)CC2)c([N+](=O)[O-])c1 [Compound Z1082766798]
-7	–	CCN(c1cccnc1)S(=O)(=O)c1cc(S(C)(=O)=O)ccc1Cl [Compound Z1082836308]
-4	–	CN(C1CCCCC1)S(=O)(=O)N1CCS(=O)(=O)CC1 [Compound Z1082836720]
10	–	Cc1cccc(=O)n1CCCCNc1cnc2ccccc2n1 [Compound Z1084012684]
-9	–	CCOCCCn1c(NC(=O)c2ccc3c(c2)CCN3C(C)=O)nc2ccccc21 [Compound Z1090594860]
-2	–	c1cncc(-c2nc(SCc3nc4ccccc4o3)n[nH]2)c1 [Compound Z1095448120]
-4	–	CC1CCCN(Cc2ccc(CNCC3CNc4ccnn4C3)cc2)C1 (stereo not shown) [Compound Z1097879141]
-5	–	Cc1nc(-c2cc(C(=O)N3CCCC(n4ccnc4)C3)co2)cs1 (stereo not shown) [Compound Z1102775620]
-6	–	CCN(CCC#N)S(=O)(=O)c1cccc(S(C)(=O)=O)c1 [Compound Z1116704440]
42	–	COCCN(CCC#N)S(=O)(=O)c1ccccc1S(C)(=O)=O [Compound Z1116705979]

First screening IR (inhibition rate) [%]	Second screening IR (inhibition rate) (second screening, dissolved from fresh powder, n = 4) [%]	SMILES
4	–	COc1ccc(-c2n[nH]c(CNC(=O)C3=NN(C)C(=O)CC3)n2)cc1 [Compound Z1119644111]
17	–	CC(C)c1nnc(CNC(C)(C)c2ccc(Cl)cc2)o1 [Compound Z1120830695]
-17	–	CN(C)C(=O)Sc1ccc(NC(=O)COc2ccc(F)cc2)cc1 [Compound Z1126778415]
-6	–	Cc1cccc(OCC(=O)Nc2ccc(SC(=O)N(C)C)cc2)c1 [Compound Z1126778839]
-7	–	Cc1cc(N(Cc2cn3ccsc3n2)C(C)C)ccc1C(N)=O [Compound Z1127155490]
43	–	CCN1CCCN(S(=O)(=O)c2ccccc2S(C)(=O)=O)CC1 [Compound Z1127188257]
12	–	Cc1ccc(C)c(CS(=O)(=O)CCCS(=O)(=O)N(C)C)c1 [Compound Z1127660495]
6	–	CN(C)S(=O)(=O)CCCS(=O)(=O)Cc1cccc(F)c1 [Compound Z1127660834]
-4	–	CN(C)S(=O)(=O)CCCS(=O)(=O)Cc1ccc(Cl)cc1 [Compound Z1127660880]
4	–	O=C(Nc1n[nH]c(-c2ccccn2)n1)c1ccc(-n2cccn2)c(F)c1 [Compound Z1128365659]
-12	–	O=C(CCN1CCCC1=O)Nc1ccc(Oc2ccc(F)cc2)cn1 [Compound Z1129155203]
29	–	CNc1snc(C)c1C(=O)NC(C)c1sc(-c2ccc(F)cc2)nc1C (stereo not shown) [Compound Z1129440199]
1	–	CC(C)(C)OC(=O)N1CCCc2cc(NC(=O)c3cnc[nH]3)ccc21 [Compound Z1131596340]
-1	–	Cc1ccc(S(=O)(=O)CCCS(=O)(=O)N(C)C)c(C)c1 [Compound Z1134191614]
22	–	CN(C)S(=O)(=O)CCCS(=O)(=O)c1nccn1C [Compound Z1134191724]
-4	–	Oc1c(Br)cccc1CNCc1ncc(-c2ccccc2)o1 [Compound Z1135283259]

Continued, molecule first:

SMILES	First screening IR (inhibition rate) [%]	Second screening IR (inhibition rate) (second screening, dissolved from fresh powder, n = 4) [%]
Cc1ccnc(NCC2CCN(Cc3cccc(C(N)=O)c3)C2)c1 (stereo not shown) [Compound Z990550860]	-3	–
Cc1cccc(NCC2CCN(Cc3cccc(C(N)=O)c3)C2)n1 (stereo not shown) [Compound Z990551490]	2	–
N#CCCn1ncc2c(NCc3ccc4c(c3)OCCO4)ncnc21 [Compound Z990838348]	2	–
OCCn1ncc2c(NCCc3nnc4ccccn34)ncnc21 [Compound Z990848218]	-6	–
N#CCCn1ncc2c(N3CCN(Cc4ccco4)CC3)ncnc21 [Compound Z990852254]	3	–
CC1CN(c2ncnc3c2cnn3CCC#N)CCO1 (stereo not shown) [Compound Z990855820]	4	–
N#CCCn1ncc2c(NC3CCCC(C(F)(F)F)C3)ncnc21 (stereo not shown) [Compound Z990858522]	-12	–
CC(C)C(=O)N1CCC(Nc2ncnc3c2cnn3CCC#N)CC1 [Compound Z990868196]	-8	–
CC(CNc1ncnc2c1cnn2CCO)Cn1cccn1 (stereo not shown) [Compound Z990883644]	11	–
COc1c(CNCc2ccc(C(=O)N(C)C)cc2)c(C)nn1C [Compound Z991036884]	27	-29
O=C(NCc1nc(-c2ccccc2)n[nH]1)c1ccc(-c2ccccc2)cc1 [Compound Z991809296]	-14	–
O=C(Cc1ccc(OC(F)F)cc1)N1CCC(c2nc(-c3ccccc3)n[nH]2)CC1 [Compound Z991836758]	-3	–
Cc1cccc(C(C)C)c1NC(=O)CN1CCCCC1Cc1ccccc1 (stereo not shown) [Compound Z991917352]	-4	–
CCN1CCN(Cc2ccc(NC(=O)C3CCCN3C(=O)c3ccc4ccccc4c3O)cc2)CC1 (stereo not shown) [Compound Z992207680]	51	–
Cc1nn(CC(C)C)c2sc(C(=O)N3c4ccccc4C[C@H]3C(N)=O)cc12 [Compound Z996487836]	1	–
O=C(c1cccn1Cc1ccncc1)N1CCOC(c2ccc(F)cc2)C1 (stereo not shown) [Compound Z998371530]	13	–
Cc1nc(NC(=O)c2cccc(NC(N)=O)c2)sc1SCC#N [Compound Z1000171966]	-2	–

SMILES	First screening IR (inhibition rate) [%]	Second screening IR (inhibition rate) (second screening, dissolved from fresh powder, n = 4) [%]
Cc1ccnc(NC(=O)C2CCN(c3ccc(C#N)cc3F)CC2)c1 [Compound Z1002220042]	1	–
COc1ccc(-c2c(C#N)c(=O)[nH]c3c2c(C)nn3-c2ccccc2)cc1OC [Compound Z1007027518]	-1	–
Cc1cc(C)c2c(c1)C(O)(CC(=O)c1ccccc1)C(=O)N2 (stereo not shown) [Compound Z1013750782]	0	–
FC(F)(F)c1ccnc(Nc2ccc(NC3CCOCC3)cc2)n1 [Compound Z1021076320]	13	–
O=C(O)c1cnc(/C=C/c2cccnc2)s1 [Compound Z1021595256]	0	–
CNC(=O)c1cnc(/C=C/c2cccnc2)s1 [Compound Z1029489284]	5	–
CCN1CCN(S(=O)(=O)C2CS(=O)(=O)c3ccccc32)CC1 (stereo not shown) [Compound Z1031094372]	8	–
CC1(C)CN(S(=O)(=O)C2CS(=O)(=O)c3ccccc32)CCO1 (stereo not shown) [Compound Z1031114832]	-4	–
CC(C)CNC(=O)c1c(N)n(CCc2ccccc2)c2nc3ccccc3nc12 [Compound Z1033301058]	-2	–
CC1CN(CC2CCN(CC(=O)Nc3cc(Cl)ccc3Cl)CC2)CC(C)O1 (stereo not shown) [Compound Z1033314424]	2	–
Cc1nc(-c2ccc(Br)cc2)nc(NCCO)c1C [Compound Z1037335626]	13	–
CCN(CC)C(=O)c1ccc(NS(=O)(=O)c2cc3c(cc2Cl)NC(=O)C3)cc1 [Compound Z1037385644]	-4	–
Cc1ccc(C(=O)Nc2cc(C(=O)N3CCCCC3)ccc2Cl)o1 [Compound Z1037939812]	3	–
NC(=O)N1CCC(C(=O)N2CCCC2CC2CC3CCC2C3)CC1 (stereo not shown) [Compound Z1038829842]	2	–
N#Cc1cnc(N2CCN(S(=O)(=O)c3cc(Cl)ccc3Cl)CC2)c(Cl)c1 [Compound Z1039059796]	0	–
N#Cc1cnc(NCCC(=O)N2CCc3sccc3C2)c(Cl)c1 [Compound Z1039090738]	2	–
